This is an account of results in patent US7628987B2, “Vectors derived from antibodies for transferring substances into cells” (Institut Pasteur, priority 1997, dated 2009).

In data set [1] the test system is 3T3 cells.
Data set [2] concerns CMV Ad169 strain. Kind of data set: Inhibition of cytomegalovirus (CMV) replication (morphology, plaque counting, Western blot). It is filed as cell-based. On the technique in general: Immunoblotting shows a protein as a band on a membrane.
Data set [3] concerns CCL39 cells. The class given is cell-based, hamster. Particulars: CCL39, complete medium, no auxiliary agent. As to the method: CCL39 cells (hamster fibroblasts) (5×10^4 cells) were placed in 24 well culture plates for 18 hours before transfection in MEM+10% FCS (foetal calf serum) culture medium. Transfections were carried out in MEM+10% FCS with no other auxiliary agent (CHLOROQUINE). The peptide-PL and free polylysine PL (corresponding to 19 lysines) were complexed with the pCMVLUC plasmid (respectively 24 μg and 70 μg per 6 μg of plasmid) for 30 minutes. The complex was then added dropwise to the CCL39. After incubating for 5 hours, the medium was replaced with fresh medium. Luciferase expression was assayed 24 hours later. The cells were washed twice with PBS. After washing, the cells were lysed with 100 μl of lyse buffer (PROMEGA) for 10-15 minutes. The cells were then centrifuged for 7 minutes at 4° C. to remove cellular debris. 20 μl of this lysate was mixed with 100 μl of luciferase buffer (PROMEGA). The relative luciferase units (RLU) were recorded on a LUMAT LB9501 (BERTHOLD). The protein concentration was determined using a BIORAD PROTEIN ASSAY-1 kit and the amount of luciferase in each sample was normalised per mg of protein, each transfection being carried out three times.

The test system of data set [4] is HSV-1 TK^− virus. Kind of data set: microbe, parasite or virus in culture. The class given is cell-based, Herpes Virus Simplex type I. Particulars: HSV1 TK^−.
Data set [5] concerns PV1/Sabin. The class given is cell-based, polio virus type 1.
Data set [6] has as its system PV1/Mahoney. It is filed as cell-based, polio virus type 1. Particulars: peptide 25 μg/ml, day 5.
For data set [7], the system named is HSV-1 TK^+ virus. Kind of data set: microbe, parasite or virus in culture. It is filed as cell-based, Herpes Virus Simplex type I. Particulars: HSV1 TK^+.
Data set [8] relates to CCL39 cells. Kind of data set: Polyfection in the presence of glycerol, CCL39 cells. The class given is cell-based, hamster. Particulars: glycerol 0.23 M, charge ratio 2.2, 5 h30. The protocol: Further, by way of comparison, transfection was carried out in the presence of polyethylene […] (PEI), 25 kDa (Aldrich, St Louis, Mo.) in a charge ratio of 2.2 in the presence of glycerol and 5 in the absence of glycerol.

Data set [9] has as its system cells in culture. Kind of data set: Cell penetration of polypeptide-streptavidin vectors coupled to enzymes. Particulars: 2 hours of culture, complete culture medium.
Data set [10] has as its system PtK2 fibroblasts. Put plainly: Study of the penetration of biotinylated polypeptides into cells (peroxidase coloration). Particulars: after 1 hour of culture, biotinylated polypeptide 5-20 μg/ml. The class given is cell-based. The protocol: Cultured PtK2 fibroblasts seeded the day before in an amount of 5×10^4 cells per well onto glass sheets, are incubated at 37° C., 1-18 hours in complete RPMI 1640 culture medium (or DMEM) (10% foetal calf serum, 2 mM L-glutamine and 1 mM of sodium pyruvate) containing a biotinylated polypeptide of the invention (5-20 μg/ml) The cells were then washed with PBS and fixed with 2% of p-formaldehyde at 4° C. for 10 minutes then washed with PBS. The cells were then incubated with a solution of streptavidin conjugated with 5 μg/ml of peroxidase in PBS for 30 minutes, then washed with PBS and incubated in the peroxidase cytochemical substrate (diaminobenzidine+H2O2). After washing, the cells were examined microscopically.

[11] abbreviates: Day 1, cells pretreated with 25 μg/ml.
[12] abbreviates: Day 4, cells pretreated with 25 μg/ml.
Where [13] appears, read: PV1/Sabin, peptide 25 μg/ml, day 5.

Where “and” joins values, the source holds several entries; their conditions need not be identical. Equal entries are not always repeated. No end group written: not given here.

Take “KKKKKKKKKKKKKKKKKKKVAYISRGGVSTYYSDTVKGRFTRQKYNKRA [K19pF4-1]”: the “toxicity of the polyplex” value in [1] was “did not induce any toxicity”. Moreover, in data set [1] (3T3, charge ratio R 4.4), the “increase of transfection after 24 h with respect to 5 h30” value is “about 1.3 factor”. For the same molecule, the luciferase activity in data set [1] (3T3, charge ratio R 4.4, incubating for 5 h30) is listed as 2-3×10^7 RLU/mg of protein. The “inhibition of infection of cells by CMV” value in data set [2] is roughly 100%. Besides, the entries for the “NUMBER OF PLAQUES FORMED, Mean” value in data set [2] (setting [11]) and in data set [2] (setting [12]) were 100.0 and 166.7, respectively. Moreover, the “NUMBER OF PLAQUES FORMED, individual determinations” value was 100 and 125 and 75 in data set [2] (setting [11]); 0 and 250 (2×) in [2] (setting [12]). Moreover, the “% reduct'n of plaques formed” value in [2] (setting [12]) came out at 99.5%. For the same molecule, the “action on CMV proteins (Western blot)” value in data set [2] (added to cells after viral adsorption) is “had no action”. Further, in data set [2] (cells treated before, and at the same time, as viral infection), the “inhibition of virus replication” value amounted to 99.5%. The results for the “cytopathogenic effects (morphology)” value in data set [2] (treated at the end of / after viral adsorption) and in data set [2] (treated before or at the same time as the viral infection) were “large” and “displayed no morphological modifications”, respectively. Also, the “appearance of CMV proteins (Western blot)” value in data set [2] (treated at the same time as viral infection) is reported as “no appearance of late proteins was noted”; in [2] (treated before viral infection) it was “the appearance of neither early proteins nor late proteins of the CMV was noted”. Besides, in [3], the “transfection efficacy relative to polylysine alone” value is listed as “about 1000 times”. Moreover, the “transfection efficacy (luciferase)” value in data set [3] (24 μg peptide per 6 μg pCMVLUC, 5 h incubation) is given as 2×10^6 RLU/mg of proteins. Moreover, the “CPE inhibition (AI)” value turned out to be 15 in data set [4] (added H0, 5 μ/well); 25 in data set [4] (added H0, 10 μ/well); 42 in data set [4] (added H0, 20 μ/well); 1 in [4] (added H + 1, 5 μ/well); 13 in [4] (added H + 1, 10 μ/well); 1 in [4] (added H + 1, 20 μ/well). For the same molecule, the “CPE inhibition (AI)” value turned out to be 25 in data set [4] (added H − 1, 5 μ/well); 7 in [4] (added H − 1, 10 μ/well); 47 in [4] (added H − 1, 20 μ/well); 21 in data set [4] (added H − 2, 5 μ/well); 5 in data set [4] (added H − 2, 10 μ/well); 25 in data set [4] (added H − 2, 20 μ/well). The “CPE inhibition (AI)” value was 13 in [7] (added H0, 5 μ/well); 30 in data set [7] (added H0, 10 μ/well); 28 in [7] (added H0, 20 μ/well); 10 in [7] (added H + 1, 5 μ/well); 12 in data set [7] (added H + 1, 10 μ/well); 10 in data set [7] (added H + 1, 20 μ/well). Besides, the “CPE inhibition (AI)” value in [7] (added H − 1, 5 μ/well) was 13; in data set [7] (added H − 1, 10 μ/well), 30; in data set [7] (added H − 1, 20 μ/well), 28; in [7] (added H − 2, 5 μ/well) it was 1; in [7] (added H − 2, 10 μ/well), 2; in data set [7] (added H − 2, 20 μ/well), 7. Besides, the “inhibiting effect on type 1 polio virus replication” value in data set [5] is “more than 30 factor”. For the same molecule, the figures for the “LOG (TITER/ML)” value in data set [5] (setting [13]) and in [6] were 8 and 8.75, respectively. For the same molecule, the “TITER REDUCTION FACTOR” value in data set [5] (setting [13]) was 32; in [6] it was 8.
Take `OCC(O)CO` [glycerol]: the “increase in polyfection (luciferase activity) induced by glycerol” value in [8] turned out to be 38 factor.
With “streptavidin: control protein in native form”, the “intracellular detection of the coupled enzymes” value in [9] was “no intracellular coloration was observed”.
In the case of VAYISRGGVSTYYSDTVKGRFTRQKYNKRA [pF4.1], the “penetration into cells (peroxidase coloration)” value in [10] was “penetrated massively and rapidly into the cells”.
